Here are results for one molecule from article PMC6290777, “Inhalation of the prodrug PI3K inhibitor CL27c improves lung function in asthma and fibrosis” (Nature Communications, 2018).

Data set [1] deals with Akt phosphorylation (Ser473) in CLL cells. The experiment in a line: Akt phosphorylation in CLL cells stimulated with anti-IgM. It counts as cell-based, human. The settings on record: CL27c 10 nM–10 µM. On the procedure: CLL cells (#Hs 505.T, ATCC® CRL-7306™) were cultured with RPMI additioned with 10% FBS and 100 μg/ml penicillin and streptomycin. The day of the assay CLL cells were seeded in 96-well plate at a concentration of 7 × 10^4 cells/ml in starving medium, RPMI free. The cells were starved for 6 h and subsequently pretreated for 1.5 h with CL27c at different concentrations. The cells were stimulated for 15 min with 15 μg/ml of goat anti-Human IgM-MU chain specific antibody (Sigma-Aldrich #I0759-1MG) and proteins were extracted with Laemmli buffer.
For all cell types, phosphorylated Akt (P-Akt, Ser 473, 1:100, Cell Signaling Technology #4060) production was detected by western blot analysis and quantified with ChemiDoc™ XRS system. P-Akt signals are normalized on endogenous. For the calculation of EC50 values, a percentage of residual P-Akt was calculated for each inhibitor concentration by using the control vehicle as 100%. To derive the EC50, all data were plotted on a dose response curve (Graph Pad software) and the EC50 was calculated by using the non-linear regression fit (equation [log agonist] vs response–variable slope).
Supplementary Figure 3: Inhibition of Akt phosphorylation at Ser473 (pAkt473) […]
panel). […] The respective EC50 was calculated by using nonlinear

Data set [2] is described as follows: Glycemia and insulin challenge after inhaled CL27c. The note with it: N.S. vs vehicle. The class given is in vivo, mice. On the procedure:
To define whether this prodrug was suitable for inhaled administration, CL27c was studied to evaluate selected ADME (absorption, distribution, metabolism, and excretion) and pharmacokinetic properties. First, stability of CL27c and CL27e was analyzed in mouse plasma (Supplementary Table 1) and in mouse, rat, and human liver microsomes in the presence of nicotinamide adenine dinucleotide phosphate (NADPH; Supplementary Table 2). Next, clearance of CL27c was analyzed in C57BL/6J mice after either intra-venous or oral administration. […] Clearance of CL27c and CL27e after oral administration could not be determined due to their low bioavailability (Supplementary Table 3). Next, pharmacokinetics after inhalation was studied in C57BL/6J mice after delivering an aerosolized micro-suspension of CL27c. As shown in Table 1 and Supplementary Fig. 1b, CL27c dose-dependently reached the lungs and its metabolite CL27e was detectable after inhalation of the highest dose. […] Therefore, the inhaled prodrug promotes local effects but prevents systemic absorption of pharmacologically relevant amounts of the active compound.
Animals were fasted overnight and, the day after, they were treated for 30 min with aerosolized CL27c (2 mg/ml in 0.5 % tylaxopol/saline solution). […]

For `COC(=O)c1cccc(Cn2cc(-c3cccc4c(=O)cc(N5CCOCC5)[nH]c34)nn2)c1` [CL27c], in data set [1], the Akt/PKB phosphorylation result is recorded as “readily reduced Akt/PKB phosphorylation”. In data set [2], the “drop in glycemia 10 min after an insulin challenge” value was determined as 17.45 ± 3.00 % drop and the glycemia turned out to be 213.0 ± 5.6 mg/dL.
